Experiments:
[1] = system: Amyloid-β peptide release (AβTotal), HEK cells overexpressing APP (HEK-APP); experiment: Amyloid-β peptide release (AβTotal) assay, AlphaLISA on supernatant of HEK-APP cells; assay type: cell-based; details: ratio Abtot vs Ab42, HEK-APP cells, 24 h
[2] = system: Amyloid-β peptide release (Aβ42), HEK cells overexpressing APP (HEK-APP); experiment: Amyloid-β peptide release (Aβ42) assay, AlphaLISA on supernatant of HEK-APP cells; assay type: cell-based; details: Homo sapiens, HEK293, 24 h incubation with compound, read-out: Ab42 IC50 Ranges
How it was run: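 HEK-APP cells treated with compounds for 24 h at 37 °C, 5% CO2. Supernatant Aβ42 or total Aβ measured by AlphaLISA after 4.5 h with antibody beads (6E10 acceptor beads for total). IC50 values derived.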

| SMILES | Abtot/Ab42 selectivity ranges [1] | IC50 [2] [nM] |
| --- | --- | --- |
| Cc1ncc2sc(C(=O)N3CCCC3c3ccc(C(F)(F)F)cc3)nn12 (centres unmarked) [Example 112, (5-Methyl-imidazo[5,1-b][1,3,4]thiadiazol-2-yl)-[2-(4-trifluoromethyl-phenyl)-pyrrolidin-1-yl]-methanone] | d (d: 10 fold > selectivity) | 100 to 500 |
| Cc1ncc2sc(C(=O)N3CCC[C@@H]3c3ccc(Br)cc3)nn12 [Example 113, (R)-(2-(4-bromophenyl)pyrrolidin-1-yl)(5-methylimidazo[5,1-b][1,3,4]thiadiazol-2-yl)methanone] | d (d: 10 fold > selectivity) | < 100 |
| Cc1ncc2sc(C(=O)N3CCC[C@H]3c3ccc(Br)cc3)nn12 [Example 114, (S)-(2-(4-bromophenyl)pyrrolidin-1-yl) (5-methylimidazo[5,1-b][1,3,4]thiadiazol-2-yl)methanone] | d (d: 10 fold > selectivity) | 1000 to 2200 |
| Cc1ncc2sc(C(=O)N3CCCCC3c3ccccc3Cl)nn12 (centres unmarked) [Example 115, [2-(2-Chloro-phenyl)-piperidin-1-yl]-(5-methyl-imidazo[5,1-b][1,3,4]thiadiazol-2-yl)-methanone] | d (d: 10 fold > selectivity) | 500 to 1000 |
| Cc1ncc2sc(C(=O)N3CCCCC3c3cccc(C(F)(F)F)c3)nn12 (centres unmarked) [Example 116, (5-Methyl-imidazo[5,1-b][1,3,4]thiadiazol-2-yl)-[2-(3-trifluoromethyl-phenyl)-piperidin-1-yl]-methanone] | d (d: 10 fold > selectivity) | 1000 to 2200 |
| Cc1ncc2sc(C(=O)N3CCCCC3Cc3ccccc3)nn12 (centres unmarked) [Example 117, (2-Benzyl-piperidin-1-yl)-(5-methyl-imidazo[5,1-b][1,3,4]thiadiazol-2-yl)-methanone] | d (d: 10 fold > selectivity) | 1000 to 2200 |
| Cc1ccc(C2CCCN2C(=O)c2nn3c(C)ncc3s2)cc1 (centres unmarked) [Example 119, (5-Methyl-imidazo[5,1-b][1,3,4]thiadiazol-2-yl)-(2-p-tolyl-pyrrolidin-1-yl)-methanone] | d (d: 10 fold > selectivity) | 100 to 500 |
| Cc1ncc2sc(C(=O)N3CCCC[C@H]3c3ccccc3)nn12 [Example 120, (5-Methyl-imidazo[5,1-b][1,3,4]thiadiazol-2-yl)-((S)-2-phenyl-piperidin-1-yl)-methanone] | d (d: 10 fold > selectivity) | 500 to 1000 |
| Cc1ccccc1C1CCCN1C(=O)c1nn2c(C)ncc2s1 (centres unmarked) [Example 121, (5-Methyl-imidazo[5,1-b][1,3,4]thiadiazol-2-yl)-(2-o-tolyl-pyrrolidin-1-yl)-methanone] | d (d: 10 fold > selectivity) | 500 to 1000 |
| Cc1ncc2sc(C(=O)N3CCCC3c3ccccc3Cl)nn12 (centres unmarked) [Example 122, [2-(2-Chloro-phenyl)-pyrrolidin-1-yl]-(5-methyl-imidazo[5,1-b][1,3,4]thiadiazol-2-yl)-methanone] | d (d: 10 fold > selectivity) | 1000 to 2200 |
| Cc1ncc2sc(C(=O)N3CCCC3c3cccc(Br)c3)nn12 (centres unmarked) [Example 123, [2-(3-Bromo-phenyl)-pyrrolidin-1-yl]-(5-methyl-imidazo[5,1-b][1,3,4]thiadiazol-2-yl)-methanone] | d (d: 10 fold > selectivity) | 1000 to 2200 |
| Cc1ncc2sc(C(=O)N3CCCC3c3ccc(F)cc3)nn12 (centres unmarked) [Example 124, [2-(4-Fluoro-phenyl)-pyrrolidin-1-yl]-(5-methyl-imidazo[5,1-b][1,3,4]thiadiazol-2-yl)-methanone] | d (d: 10 fold > selectivity) | 100 to 500 |
| COc1cc(NC(=O)Cc2cccc3ccccc23)ccc1-c1nn2c(C)ncc2s1 [Example 125, N-[3-Methoxy-4-(5-methyl-imidazo[5,1-b][1,3,4]thiadiazol-2-yl)-phenyl]-2-naphthalen-1-yl-acetamide] | c (c: 50 fold > selectivity ≥ 10 fold) | 100 to 500 |
| COc1cc(NC(=O)Cc2cc(C)ccc2C)ccc1-c1nn2c(C)ncc2s1 [Example 126, 2-(2,5-Dimethyl-phenyl)-N-[3-methoxy-4-(5-methyl-imidazo[5,1-b][1,3,4]thiadiazol-2-yl)-phenyl]-acetamide] | d (d: 10 fold > selectivity) | 500 to 1000 |
| Cc1ncc2sc(-c3ccc(C(=O)NCc4cccc5ccccc45)cc3)nn12 [Example 127, 4-(5-Methyl-imidazo[5,1-b][1,3,4]thiadiazol-2-yl)-N-naphthalen-1-ylmethyl-benzamide] | b (b: 100 fold > selectivity ≥ 50 fold) | 500 to 1000 |
| Cc1ncc2sc(-c3ccc(NC(=O)Cc4ccc(Cl)c(Cl)c4)cc3)nn12 [Example 128, 2-(3,4-Dichloro-phenyl)-N-[4-(5-methyl-imidazo[5,1-b][1,3,4]thiadiazol-2-yl)-phenyl]-acetamide] | c (c: 50 fold > selectivity ≥ 10 fold) | 500 to 1000 |

— patent US9932354B2, “Imidazo-oxadiazole and imidazo-thiadiazole derivatives” (Ares Trading S.A., priority 2012, dated 2018)
